Reference: patent publication US20200260724A1, “METHODS TO FORMULATE NEUTRAL ORGANIC COMPOUNDS WITH POLYMER NANOPARTICLES” (Vive Crop Protection Inc., priority 2010, published 2020)

What was measured:
[1] = Pyrene fluorescent probe of nanoparticle microenvironment (I1/I3 ratio); assay type: physicochemical; conditions: pyrene emission, excitation 340 nm
Description: The intensity ratio of the first and third vibronic bands (I1/I3) in the emission spectra of the pyrene monomer is very sensitive to the monomer's microenvironment, and can be used as a metric to gauge the hydrophobic nature of different polymer nanoparticles produced using the methods described in this patent.
The pyrene microenvironments from different polymer nanoparticles were probed for the following nanoparticles: Na^+-collapsed polyacrylic acid (Na-PAA), ZnO/polyacrylic nanoparticles (ZnO-PAA), Zn^2+-collapsed nanoparticles (Zn-PAA), Na^+-collapsed PMAA nanoparticles (Na-PMAA), Na^+-collapsed P(MAA-co-EA) nanoparticles (Na—P(MAA-EA), poly(vinyl pyrollidone)-collapsed polyacrylic acid nanoparticles (PVP/PAA). Aqueous pyrene-nanoparticle solutions were prepared as follows. 1.0 mg pyrene was dissolved in 10 mL discholormethane and was used as the stock pyrene solution (0.1 mg/mL). To prepare the aqueous pyrene-nanoparticle solutions, 10 micro liters of the stock pyrene solution was added to a 20 mL scintillation vial and was allowed to air dry in a fume hood for one hour. 80 mg of solid nanoparticles or polymer, 10 g of deionized water and a magnetic stir bar were then added to the vial. […] Emission spectra were measured on a Perkin Elmer LS 55 Luminescence Spectrometer using an excitation wavelength of 340 nm, having slit widths for both excitation and emission at 2.5 nm. […]

[2] = Viscosity of solutions and dispersions in cP; assay type: physicochemical; conditions: temperature printed per sample, 23.1-26.0° C.
Method: Solid 2,4-dichlorophenoxyacetic acid (2,4-D) (0.158 g, 0.72 mmol) and fresh deionized water (50 mL) were added to a 100 mL glass beaker, along with a stir bar. The medium was connected to a pH meter and the reading was at 2.76. To the stirring dispersion, aqueous NaOH (10N) was added dropwise. As the pH increased, more solid 2,4-D dissolved the dispersion became more transparent. Eventually, all of the solid 2,4-D dissolved completely, and the solution appeared transparent. The pH and viscosity of the solution was measured at 10.76 and 0.93 cP at 25.4° C. For the reference, the viscosity of pure water was measured using the same instrument and shown a value of 0.92 cP at 26.4° C.

## c1cc2ccc3cccc4ccc(c1)c2c34 [Pyrene - control, pyrene]
[1]; pH 6-8
  I1/I3 ratio: 1.68
[1]; pH 8-10
  I1/I3 ratio: 1.70

## O=C(O)COc1ccc(Cl)cc1Cl [2,4-D, 2,4-dichlorophenoxyacetic acid]
[2]
  Viscosity of solution or nanoparticle dispersion: 0.93 cP
